Reference: patent US9789101B2, “Methods and compositions for treating microbial infection using pyrroloquinone” (HELPERBY THERAPEUTICS LIMITED, priority 2010, dated 2017)

Key:
[1] = tested on: Mupirocin Resistant S. aureus (24 Passages); assay: Chequerboard analysis of HT00800059 and mupirocin against mupirocin resistant S. aureus (24 passages); assay type: cell-based, Staphylococcus aureus; settings: for optical density reading at 405 nm: HT00800059 μg/ml: 1024,512,256,128,64,32,16,0, 24 hours
Procedure: (§1) Staphylococcus aureus (Oxford); Gram positive; Reference strain.
(§2) Log phase growth of mupirocin resistant Staphylococcus aureus (MSSA) was carried out as follows: • Bacteria were grown in 10 ml of nutrient broth (No. 2, (Oxoid)) overnight at 37° C. with continuous shaking at 120 rpm. The overnight cultures were diluted 1000× with iso-sensitest broth. The cultures were incubated at 37° C. with shaking for 1-2 hours to reach log CFU 6. Viability of the bacteria was estimated by colony forming unit (CFU) counts. From serial 10-fold dilutions of the experimental cultures, 100 μl samples were added to triplicate plates of nutrient agar plates (Oxoid) or blood agar plates (Oxoid). CFUs were counted after incubation of the plates at 37° C. for 24 hours.
(§3) Bacterial cultures: 10 μl of overnight cultures was added to 10 ml of fresh iso-sensitest broth to make the inoculation to 10^6 CFU/ml. 290 μl of the cell suspension was added to each well of the 96 well plate, which was incubated at 37° C. for 24 hours. 300 μl of iso-sensitest broth without bacterial cells were added to wells of the plate as a no bacterial control.
(§4) MIC determination: The optical density of the bacterial cells was read at 405 nm using a plate reader (Bio TEK). The MIC concentration was determined as the lowest concentration of drug which inhibits the bacterial growth.
(§5) Mupirocin was dissolved in DMSO to the stock concentration of 10 mg/ml. HT00800059 was dissolved in H2O to the stock solution 30.07 mg/ml.
(§6) Mupirocin (10 mg/ml) was firstly diluted to 3.84 mg/ml, then further diluted in a serial of 2 fold dilutions. HT00800059 (30.7 mg/ml) was performed in a serial of 2 fold dilutions.
(§7) This was followed by the addition of 280 μl of log phase culture at 10^6 CFU/ml to make the final concentrations of each drug as shown in Table 1 and Table 2.
(§8) In the above table, values in bold text are for HT00800059. Values in plain text are for mupirocin. The numbers shown in each well are μg/ml.
(§9) Incubation of the compounds with the bacterial suspension was carried out for 24 hours. The kill effects of the drug combination were measured by optical density reading at 405 nm with a plate reader (Bio TEK).
(§10) The fractional inhibitory concentration (FIC) index was carried out as following: (MIC of drug A, tested in combination)/(MIC of drug A, tested alone)+(MIC of drug B, tested in combination)/(MIC of drug B, tested alone). The interaction was defined as synergistic if the FIC index was <1, additive if the FIC index was =1 and antagonistic if the FIC index was >1.

[2] = tested on: log phase Staphylococcus aureus; assay: Chequerboard analysis of HT00800059 and mupirocin against log phase Staphylococcus aureus; assay type: cell-based, Staphylococcus aureus (Oxford)
Procedure: Staphylococcus aureus (Oxford); Gram positive; Reference strain. Log phase growth of […] sensitive Staphylococcus aureus (MSSA) was carried out as follows: • Bacteria were grown in 10 ml of nutrient broth (No. 2, (Oxoid)) overnight at 37° C. with continuous shaking at 120 rpm. […] The cultures were incubated at 37° C. with shaking for 1-2 hours to reach log CFU 6. Viability of the bacteria was estimated by colony forming unit (CFU) counts. From serial 10-fold dilutions of the experimental cultures, 100 μl samples were added to triplicate plates of nutrient agar plates (Oxoid) or blood agar plates (Oxoid). CFUs were counted after incubation of the plates at 37° C. for 24 hours. […] 290 μl of the cell suspension was added to each well of the 96 well plate, which was incubated at 37° C. for 24 hours. […] MIC determination: The optical density of the bacterial cells was read at 405 nm using a plate reader (Bio TEK). The MIC concentration was determined as the lowest concentration of drug which inhibits the bacterial growth. […] HT00800059 was dissolved in H2O to the stock solution 30.07 mg/ml. […] HT00800059 (30.7 mg/ml) was performed in a serial of 2 fold dilutions. This was followed by the addition of 280 μl of log phase culture at 10^6 CFU/ml to make the final concentrations of each drug as shown. In the above table, values in bold text are for HT00800059. Values in plain text are for mupirocin. The numbers shown in each well are μg/ml. Incubation of the compounds with the bacterial suspension was carried out for 24 hours. The kill effects of the drug combination were measured by optical density reading at 405 nm with a plate reader (Bio TEK). The fractional inhibitory concentration (FIC) index was carried out as following: (MIC of drug A, tested in combination)/(MIC of drug A, tested alone)+(MIC of drug B, tested in combination)/(MIC of drug B, tested alone). The interaction was defined as synergistic if the FIC index was <1, additive if the FIC index was =1 and antagonistic if the FIC index was >1.

[3] = tested on: Mupirocin Resistant S. aureus (28 Passages); assay: Chequerboard analysis of HT00800059 and mupirocin against mupirocin resistant S. aureus (28 passages); assay type: cell-based, Staphylococcus aureus; settings: for optical density reading at 405 nm: HT00800059 μg/ml: 1024,512,256,128,64,32,16,0, 24 hours
Procedure: as §1, §2, §3, §4, §5, §6, §7, §8, §9, §10

[4] = Staphylococcus aureus, read-out: alone MIC

Q: Which “optical density reading at 405 nm” value ([1]; 24 passages, mupirocin 0.125 μg/ml) does the source give for `C/C(=C\C(=O)OCCCCCCCCC(=O)O)C[C@@H]1OC[C@H](C[C@@H]2O[C@H]2[C@@H](C)[C@H](C)O)[C@@H](O)[C@H]1O` [Mupirocin] here?
A: 1.170

Q: And the “optical density reading at 405 nm” value ([1]; 24 passages, mupirocin 0.25 μg/ml)?
A: 1.083

Q: What about the “optical density reading at 405 nm” value ([1]; 24 passages, mupirocin 0.5 μg/ml) of the same compound?
A: 1.109

Q: What about the “optical density reading at 405 nm” value ([1]; 24 passages, mupirocin 1 μg/ml) of the same compound?
A: 1.056

Q: And the “optical density reading at 405 nm” value ([1]; 24 passages, mupirocin 2 μg/ml)?
A: 0.863

Q: And the “optical density reading at 405 nm” value ([1]; 24 passages, mupirocin 4 μg/ml)?
A: 0.629

Q: What about the “optical density reading at 405 nm” value ([1]; 24 passages, mupirocin 8 μg/ml) of the same compound?
A: 0.454

Q: And the “optical density reading at 405 nm” value ([1]; 24 passages, mupirocin 16 μg/ml)?
A: 0.386

Q: And the “optical density reading at 405 nm” value ([1]; 24 passages, mupirocin 21 μg/ml)?
A: 0.359

Q: And the “optical density reading at 405 nm” value ([1]; 24 passages, mupirocin 64 μg/ml)?
A: 0.356

Q: What about the “optical density reading at 405 nm” value ([1]; 24 passages, mupirocin 128 μg/ml) of the same compound?
A: 0.358

Q: And the MIC [1, 4]?
A: 16 µg/mL

Q: And the MIC before combination ([1]; resistant strain 24 passages)?
A: 16 µg/mL

Q: And the MIC post combination ([1]; resistant strain 24 passages)?
A: 1 µg/mL

Q: What about the “mupirocin MIC in combination” value ([1]; with HT00800059 at 256 μg/ml, 24 passages) of the same compound?
A: 1 µg/mL

Q: And the MIC ([2]; Staphylococcus aureus, summary list, read-out: alone MIC)?
A: 0.25 µg/mL

Q: What about the MIC before combination ([2]; iso-sensitest broth) of the same compound?
A: 0.25 µg/mL

Q: And the MIC post combination ([2]; iso-sensitest broth)?
A: 0.0625 µg/mL

Q: What about the MIC before combination ([2]; nutrient broth) of the same compound?
A: 0.25 µg/mL

Q: And the MIC post combination ([2]; nutrient broth)?
A: 0.0625 µg/mL

Q: What about the “mupirocin MIC in combination” value ([2]; with HT00800059 at 256 μg/ml) of the same compound?
A: 0.0625 µg/mL

Q: What about the “optical density reading at 405 nm” value ([3]; 28 passages, mupirocin 0.125 μg/ml) of the same compound?
A: 1.255

Q: And the “optical density reading at 405 nm” value ([3]; 28 passages, mupirocin 0.25 μg/ml)?
A: 1.246

Q: What about the “optical density reading at 405 nm” value ([3]; 28 passages, mupirocin 0.5 μg/ml) of the same compound?
A: 1.252

Q: And the “optical density reading at 405 nm” value ([3]; 28 passages, mupirocin 1 μg/ml)?
A: 1.244

Q: What about the “optical density reading at 405 nm” value ([3]; 28 passages, mupirocin 2 μg/ml) of the same compound?
A: 1.208

Q: And the “optical density reading at 405 nm” value ([3]; 28 passages, mupirocin 4 μg/ml)?
A: 1.136

Q: And the “optical density reading at 405 nm” value ([3]; 28 passages, mupirocin 8 μg/ml)?
A: 0.968

Q: What about the “optical density reading at 405 nm” value ([3]; 28 passages, mupirocin 16 μg/ml) of the same compound?
A: 0.726

Q: What about the “optical density reading at 405 nm” value ([3]; 28 passages, mupirocin 32 μg/ml) of the same compound?
A: 0.480

Q: What about the “optical density reading at 405 nm” value ([3]; 28 passages, mupirocin 64 μg/ml) of the same compound?
A: 0.363

Q: And the “optical density reading at 405 nm” value ([3]; 28 passages, mupirocin 128 μg/ml)?
A: 0.346

Q: And the MIC [3, 4]?
A: 64 µg/mL

Q: What about the MIC before combination ([3]; resistant strain 28 passages) of the same compound?
A: 64 µg/mL

Q: And the MIC post combination ([3]; resistant strain 28 passages)?
A: 4 µg/mL

Q: What about the “mupirocin MIC in combination” value ([3]; with HT00800059 at 256 μg/ml, 28 passages) of the same compound?
A: 4 µg/mL
